This is an account of results in ChEMBL document CHEMBL1145488, “Transient loss of high-level mupirocin resistance in Staphylococcus aureus due to MupA polymorphism” (2007).

Values after ≈ are worked out from the molar mass of the structure shown.

Assay type in all cases: functional
Test [1] concerns Staphylococcus aureus. Kind of test: Antibacterial activity against Staphylococcus aureus with ileS gene mutation.
Test [2] concerns Staphylococcus aureus. The experiment in a line: Antibacterial activity against Staphylococcus aureus MB1348 with mupA gene mutation by Etest.
Test [3] relates to Staphylococcus aureus. The experiment in a line: Antibacterial activity against Staphylococcus aureus MB1348 with mupA gene mutation by broth microdilution.
For test [4], the system named is Staphylococcus aureus. The experiment in a line: Antibacterial activity against Staphylococcus aureus J2870 with mupA gene mutation.

Take `C/C(=C\C(=O)OCCCCCCCCC(=O)O)C[C@@H]1OC[C@H](C[C@@H]2O[C@H]2[C@@H](C)[C@H](C)O)[C@@H](O)[C@H]1O` [MUPIROCIN]: the MIC against Staphylococcus aureus [1] is 8 µg/mL (≈ 16 µM); with Staphylococcus aureus [2], above 256 µg/mL; with Staphylococcus aureus [3], 0.25 µg/mL (≈ 0.499 µM); in the test on Staphylococcus aureus [4], at least 512 µg/mL.
